# Where a name gives a salt, the structure may show the parent alone.
# Biological target: T1, CCR-3 receptor (Homo sapiens, UniProt P51677)
# T1 construct: expressed in transfected cells; host or cells: L1.2 (murine pre-B lymphoma line) stably transfected with CCR-3
# T1 sequence (P51677 1-355): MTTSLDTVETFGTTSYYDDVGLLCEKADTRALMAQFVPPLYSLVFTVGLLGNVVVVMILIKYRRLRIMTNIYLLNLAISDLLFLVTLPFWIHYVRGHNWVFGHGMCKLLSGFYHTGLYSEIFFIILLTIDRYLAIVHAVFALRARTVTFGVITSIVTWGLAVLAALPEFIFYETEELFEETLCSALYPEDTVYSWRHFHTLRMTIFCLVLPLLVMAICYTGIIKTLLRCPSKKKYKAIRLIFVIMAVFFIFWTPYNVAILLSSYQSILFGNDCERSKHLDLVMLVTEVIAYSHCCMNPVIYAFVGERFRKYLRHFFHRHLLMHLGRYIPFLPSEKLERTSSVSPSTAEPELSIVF
# Assay: CCR-3 receptor binding assay, in vitro: inhibition of 125I eotaxin binding to CCR-3 L1.2 transfectant cells
# Settings: inhibition of binding of 125I-eotaxin to CCR-3 L1.2 transfected cells, 1 hour at room temperature
# Method: The CCR-3 antagonistic activity of the compounds of the invention was determined by their ability to inhibit the binding of ^125I eotaxin to CCR-3 L1.2 transfectant cells (see Ponath, P. D. et al., J. Exp. Med., Vol. 183, 2437-2448, (1996)).
# The assay was performed in Costar 96-well polypropylene round bottom plates. Test compounds were dissolved in DMSO and then diluted with binding buffer (50 mM HEPES, 1 mM CaCl2, 5 mM MgCl2, 0.5% bovine serum albumin (BSA), 0.02% sodium azide, pH 7.24) such that the final DMSO concentration was 2%. 25 μl of the test solution or only buffer with DMSO (control samples) was added to each well, followed by the addition of 25 μl of ^125I-eotaxin ([…]) (NEX314, New England Nuclear, Boston, Mass.) and 1.5×10^5 of the CCR-3 L1.2 transfected cells in 25 μl binding buffer. The final reaction volume was 75 μl.
# After incubating the reaction mixture for 1 hour at room temperature, the reaction was terminated by filtering the reaction mixture through polyethylenimine treated Packard Unifilter GF/C filter plate (Packard, Chicago, Ill.). The filters were washed four times with ice cold wash buffer containing 10 mm HEPES and 0.5M sodium chloride (pH 7.2) and dried at 65° C. for approximately 10 minutes. 25 μl/well of Microscint-20® scintillation fluid (Packard) was added and the radioactivity retained on the filters was determined by using the Packard TopCount®.
row,Compound,IC50
1,"O=C(Nc1ccc2ccccc2n1)N[C@@H]1CCC[C@H]1N1CCC(Cc2ccc(Cl)cc2)CC1 (racemic) [Compound 1, (±)-trans-1-{2-[4-(4-chlorobenzyl)piperidin-1-yl]cyclopentyl}-3-quinolin-2-yl-urea]",557 nM
2,CC(=O)Nc1cccc(NC(=O)N[C@@H]2CCC[C@H]2N2CCC(Cc3ccc(Cl)cc3)CC2)c1 [Compound 2],18.5 nM
3,O=C(Nc1cccc(Cl)c1Cl)N[C@@H]1CCC[C@H]1N1CCC(Cc2ccc(Cl)cc2)CC1 [Compound 3],1140 nM
4,O=C(NCCc1cccs1)N[C@@H]1CCC[C@H]1N1CCC(Cc2ccc(Cl)cc2)CC1 [Compound 4],864 nM
5,O=C(N[C@@H]1CCC[C@H]1N1CCC(Cc2ccc(Cl)cc2)CC1)c1cc2cc(Cl)ccc2[nH]1 [Compound 5],2690 nM
6,CC(=O)c1cccc(C(=O)N[C@@H]2CCC[C@H]2N2CCC(Cc3ccc(Cl)cc3)CC2)c1 [Compound 6],1860 nM
7,COc1cc(CC(=O)N[C@@H]2CCC[C@H]2N2CCC(Cc3ccc(Cl)cc3)CC2)cc(OC)c1OC [Compound 7],1480 nM
8,O=[N+]([O-])c1ccccc1S(=O)(=O)N[C@@H]1CCC[C@H]1N1CCC(Cc2ccc(Cl)cc2)CC1 [Compound 8],6090 nM
9,O=C(N[C@@H]1CCC[C@H]1N1CCC(Cc2ccc(Cl)cc2)CC1)OCc1ccc([N+](=O)[O-])cc1 [Compound 9],5120 nM
10,COc1ccc(NC(=S)N[C@@H]2CCC[C@H]2N2CCC(Cc3ccc(Cl)cc3)CC2)cc1 [Compound 10],512 nM

# Tested on: not given
# Assay: not given
# Settings: not given
row,Compound,melting point
1,COc1cc(NC(=O)N[C@@H]2CCC[C@@H]2N2CCC(Cc3ccc(Cl)cc3)CC2)cc(OC)c1OC (racemic) (as salt: hydrochloride),117.5 to 122.5 °C
2,COc1cc(NC(=O)N[C@@H]2CN(C(C)=O)C[C@H]2N2CCC(Cc3ccc(Cl)cc3)CC2)cc(OC)c1OC (racemic) (as salt: hydrochloride),155 to 161 °C
3,COc1cc(NC(=O)N[C@@H]2CCCC[C@@H]2N2CCC(Cc3ccc(Cl)cc3)CC2)cc(OC)c1OC (racemic) (as salt: hydrochloride),120.1 to 137.3 °C
4,COc1cc(NC(=O)N[C@@H]2CN(S(C)(=O)=O)C[C@H]2N2CCC(Cc3ccc(Cl)cc3)CC2)cc(OC)c1OC (racemic) (as salt: hydrochloride),148 to 158 °C
5,COc1cc(NC(=O)N[C@@H]2CN(S(=O)(=O)N(C)C)C[C@H]2N2CCC(Cc3ccc(Cl)cc3)CC2)cc(OC)c1OC (racemic) (as salt: hydrochloride),141 to 143 °C
6,COc1cc(NC(=O)N[C@@H]2CN(C(=O)N(C)C)C[C@H]2N2CCC(Cc3ccc(Cl)cc3)CC2)cc(OC)c1OC (racemic) (as salt: hydrochloride),142 to 144.5 °C
7,COc1cc(NC(=O)N[C@@H]2CN(C(N)=O)C[C@H]2N2CCC(Cc3ccc(Cl)cc3)CC2)cc(OC)c1OC (racemic) (as salt: hydrochloride),158 to 162 °C
8,COC[C@@H]1C[C@@H](N2CCC(Cc3ccc(Cl)cc3)CC2)[C@H](NC(=O)Nc2cc(OC)c(OC)c(OC)c2)C1 (racemic) (as salt: hydrochloride),109 to 112 °C
9,COc1cc(NC(=O)N[C@@H]2C[C@H](OC)C[C@H]2N2CCC(Cc3ccc(Cl)cc3)CC2)cc(OC)c1OC (racemic) (as salt: hydrochloride),112.5 to 119.5 °C
10,COc1cc(NC(=O)N[C@@H]2CN(CC(N)=O)C[C@H]2N2CCC(Cc3ccc(Cl)cc3)CC2)cc(OC)c1OC (racemic) (as salt: hydrochloride),160 to 165 °C
11,COc1cc(NC(=O)N[C@@H]2CN(CCS(C)(=O)=O)C[C@H]2N2CCC(Cc3ccc(Cl)cc3)CC2)cc(OC)c1OC (racemic) (as salt: hydrochloride),210.2 to 211.8 °C
12,COc1cc(CCNC(=O)N[C@@H]2CCC[C@H]2N2CCC(Cc3ccc(Cl)cc3)CC2)cc(OC)c1OC (racemic) (as salt: hydrochloride),90.3 to 95 °C
13,COc1cc(NC(=O)N[C@@H]2CN(S(N)(=O)=O)C[C@H]2N2CCC(Cc3ccc(Cl)cc3)CC2)cc(OC)c1OC (racemic) (as salt: hydrochloride),155.7 to 160 °C
14,CS(=O)(=O)c1ccc(C(=O)N[C@@H]2CC[C@H]2N2CCC(Cc3ccc(Cl)cc3)CC2)cc1 (racemic) (as salt: hydrochloride),173.2 to 184.1 °C
15,COc1cc(NC(=O)N[C@@H]2CC[C@H]2N2CCC(Cc3ccc(Cl)cc3)CC2)cc(OC)c1OC (racemic) (as salt: hydrochloride),127.4 to 128.2 °C
16,CS(=O)(=O)c1cccc(NC(=O)N[C@@H]2CCCC[C@H]2N2CCC(Cc3ccc(Cl)cc3)CC2)c1 (racemic) (as salt: hydrochloride),150.2 to 151.6 °C
17,COc1cc(NC(=O)N[C@@H]2CC[C@@H]2N2CCC(Cc3ccc(Cl)cc3)CC2)cc(OC)c1OC (racemic) (as salt: hydrochloride),123.7 to 127.9 °C
18,COc1cc(NC(=O)N[C@@H]2CCC[C@H]2N2CCC(Cc3ccc(Cl)cc3)CC2)cc(OC)c1OC (racemic) (as salt: hydrochloride),136.1 to 138 °C
19,COc1cc(NC(=O)N[C@@H]2COC[C@H]2N2CCC(Cc3ccc(Cl)cc3)CC2)cc(OC)c1OC (racemic) (as salt: hydrochloride),229.2 to 230.9 °C
20,COc1cc(NC(=O)N[C@@H]2C[C@H](O)C[C@H]2N2CCC(Cc3ccc(Cl)cc3)CC2)cc(OC)c1OC (racemic) (as salt: hydrochloride),137 to 143 °C
21,COc1cc(NC(=O)N[C@@H]2C[C@H](CO)C[C@H]2N2CCC(Cc3ccc(Cl)cc3)CC2)cc(OC)c1OC (racemic) (as salt: hydrochloride),138 to 143 °C
22,"COc1cc(NC(=O)N[C@@H]2CNC[C@H]2N2CCC(Cc3ccc(Cl)cc3)CC2)cc(OC)c1OC (racemic) (as salt: hydrochloride) [Example 9, (±)-trans-1-{4-[4-(4-chlorobenzyl)piperidin-1-yl]-pyrrolidin-3-yl}-3-(3,4,5-trimethoxyphenyl)urea dihydrochloride]",157 to 170 °C
23,"CS(=O)(=O)c1ccc(C(=O)N[C@@H]2CCC[C@@H]2N2CCC(Cc3ccc(Cl)cc3)CC2)cc1 (racemic) (as salt: hydrochloride) [Example 11, (±)-cis-N-{2-[4-(4-chlorobenzyl)piperidin-1-yl]-cyclopentyl}-4-methanesulfonyl-benzamide hydrochloride]",125.3 to 131.9 °C
24,"CS(=O)(=O)c1ccc(C(=O)N[C@@H]2CCCC[C@@H]2N2CCC(Cc3ccc(Cl)cc3)CC2)cc1 (racemic) (as salt: hydrochloride) [Example 14, (±)-cis-N-{2-[4-(4-chlorobenzyl)piperidin-1-yl]-cyclohexyl}-4-methanesulfonyl-benzamide hydrochloride]",123.7 to 149.4 °C
25,"COc1cc(NC(=O)N[C@@H]2CCCC[C@H]2N2CCC(Cc3ccc(Cl)cc3)CC2)cc(OC)c1OC (racemic) [Example 1, (±)-trans-1-{2-[4-(4-chlorobenzyl)piperidin-1-yl]-cyclohexyl}-3-(3,4,5-trimethoxyphenyl)urea]",196.9 to 200 °C
26,"COc1cc(NC(=O)N[C@@H]2C[C@H](O)C[C@H]2N2CCC(Cc3ccc(Cl)cc3)CC2)cc(OC)c1OC (racemic) [Example 6, (±)-1-{(1R,2R,4S)-2-[4-(4-chlorobenzyl)piperidin-1-yl]-4-hydroxy-cyclopentyl}-3-(3,4,5-trimethoxyphenyl)urea]",98.7 to 102 °C
27,"COc1cc(NC(=O)N[C@@H]2CCC[C@H]2N2CCC(Cc3ccc(Cl)cc3)CC2)cc2ccccc12 (racemic) [Example 22, (±)-trans-1-{2-[4-(4-chlorobenzyl)piperidin-1-yl]-cyclopentyl}-3-(4-methoxy-naphthalen-2-yl)urea]",175 to 190 °C
